Literature values, collected in patent US20060182729A1, “Combat/training antioxidant micronutrient formulation and method of administration” (priority 2005, published 2006).

Legend:
[1] = oral supplementation, human subjects
[2] = test system: mutagens in the small intestine; settings: supplementation

plasma levels of glutathione [1]	Structure (SMILES)	formation of mutagens in the small intestine [2]
failed to significantly increase	N[C@@H](CCC(=O)N[C@@H](CS)C(=O)NCC(=O)O)C(=O)O [glutathione]	–
–	O=C1O[C@H]([C@@H](O)CO)C(O)=C1O [vitamin C, ascorbic acid]	reduces
